# Test results from PMC10630452, “The tumor-enriched small molecule gambogic amide suppresses glioma by targeting WDR1-dependent cytoskeleton remodeling” (Signal Transduction and Targeted Therapy, 2023).
# Legend:
# [1] = system: PDCs and GSCs; assay: Transwell cell invasion assay; type: cell-based; settings: 0.1 μM and 0.3 μM, 48–72 h
# Experimental: First, cells were starved for 12 h. The top surface of the membrane in the upper transwell chamber was coated with Matrigel (dilution ratio, 1:100, Corning, USA) by incubation for 30 min. Cells were plated in the upper chamber with serum-free neurobasal medium containing the corresponding concentration of GA-amide, and 600 μL of neurobasal medium containing 10% FBS and the same concentration of GA-amide was added to the lower chamber for 24–72 h of culture. Next, the cells in the transwell chamber were fixed with 4% paraformaldehyde for 20 min. After noninvaded cells in the upper chamber were removed by wiping, the remaining cells were stained with 1% crystal violet staining solution for 20 min and washed with double-distilled water. Finally, cell invasion was evaluated by microscopy.
# [2] = biological target: T1, TrkA (Homo sapiens, UniProt P04629); assay: Western blot of TrkA phosphorylation in GSCs; type: cell-based; settings: GSC2 and U87MG-SLC cells, 4 hours
# T1 construct: endogenous in cells; host or cells: GSC2 and U87MG-SLC glioma stem cells
# T1 sequence (P04629 33-796): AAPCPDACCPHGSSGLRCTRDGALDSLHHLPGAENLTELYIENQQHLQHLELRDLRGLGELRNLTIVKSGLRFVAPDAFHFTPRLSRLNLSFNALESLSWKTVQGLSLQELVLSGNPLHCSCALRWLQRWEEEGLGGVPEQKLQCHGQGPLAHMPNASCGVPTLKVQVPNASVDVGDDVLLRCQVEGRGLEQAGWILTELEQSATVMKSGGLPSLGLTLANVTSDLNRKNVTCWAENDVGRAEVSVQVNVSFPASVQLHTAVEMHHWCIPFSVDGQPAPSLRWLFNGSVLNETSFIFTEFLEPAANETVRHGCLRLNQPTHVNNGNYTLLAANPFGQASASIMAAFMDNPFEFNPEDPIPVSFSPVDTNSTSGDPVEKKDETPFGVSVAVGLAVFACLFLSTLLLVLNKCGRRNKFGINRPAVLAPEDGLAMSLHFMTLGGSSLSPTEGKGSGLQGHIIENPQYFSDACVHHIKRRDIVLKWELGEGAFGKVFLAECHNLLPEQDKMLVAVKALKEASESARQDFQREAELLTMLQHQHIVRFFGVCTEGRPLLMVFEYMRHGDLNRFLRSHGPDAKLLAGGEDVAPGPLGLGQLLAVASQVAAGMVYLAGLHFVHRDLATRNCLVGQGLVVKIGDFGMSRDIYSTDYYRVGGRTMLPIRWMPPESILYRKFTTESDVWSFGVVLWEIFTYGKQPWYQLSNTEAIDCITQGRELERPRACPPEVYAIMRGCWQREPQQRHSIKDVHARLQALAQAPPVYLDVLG
# Experimental: Proteins in the samples were separated on SDS–polyacrylamide gels and transferred to nitrocellulose membranes (Amersham, Sweden). After blocking with 5% skim milk, the membranes were incubated with the indicated primary antibodies listed in Supplementary Table 3 overnight. After washing with 1 × TBST three times, the membranes were incubated with secondary antibodies, and protein bands were detected by using ECL reagent.
# Supplementary Fig. 5 TrkA was not the functional target for GA-amide to inhibit glioma. a Western blot analyses of the TrkA and p-TrkA expression in GSC2 and U87MG-SLC cells with GA-amide treatment for 4 hours. b Western blot analyses of the p-TrkA expression in GSC2 with GA-amide treatment for different times. c, d The combination effects of GA-amide with GW441756, a TrkA inhibitor, or with K252a, an inhibitor of Trk family in GSC2 (c) and U87MG-SLC (d) (48 hours, n = 3).
# [3] = biological target: T2, WDR1 (Homo sapiens, UniProt O75083); assay: Cellular thermal shift assay (CETSA) in T2-4 cells; type: cell-based; settings: 3 µM, 1 h, 67°C–70°C
# T2 construct: GA-amide protected WDR1 at different temperature gradients in the CETSA in T2-4 cells; endogenous in cells; host or cells: T2-4 patient-derived glioma cells
# T2 sequence (O75083 whole entry): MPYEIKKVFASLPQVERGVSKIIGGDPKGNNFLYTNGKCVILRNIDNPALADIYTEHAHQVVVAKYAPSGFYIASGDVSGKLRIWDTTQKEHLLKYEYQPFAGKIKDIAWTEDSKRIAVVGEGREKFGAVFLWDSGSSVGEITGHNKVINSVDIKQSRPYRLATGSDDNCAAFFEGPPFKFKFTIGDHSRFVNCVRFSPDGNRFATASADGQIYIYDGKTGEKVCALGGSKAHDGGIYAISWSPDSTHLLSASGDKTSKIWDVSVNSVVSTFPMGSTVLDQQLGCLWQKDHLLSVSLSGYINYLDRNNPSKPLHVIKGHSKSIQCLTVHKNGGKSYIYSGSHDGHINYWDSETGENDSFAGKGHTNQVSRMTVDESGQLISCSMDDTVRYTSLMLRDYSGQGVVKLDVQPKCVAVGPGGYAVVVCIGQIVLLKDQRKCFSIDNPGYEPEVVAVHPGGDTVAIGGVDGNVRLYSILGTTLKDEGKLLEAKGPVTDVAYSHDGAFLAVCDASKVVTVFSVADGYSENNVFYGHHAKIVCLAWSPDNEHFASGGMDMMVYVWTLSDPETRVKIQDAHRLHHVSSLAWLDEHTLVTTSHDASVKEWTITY
# Experimental: The cellular thermal shift assay (CETSA) has been described previously. Briefly, cells were incubated with DMSO or 3 µM GA-amide for 1 h and washed with PBS three times. Then, the cells were suspended in 1 mL of PBS and divided into equal volumes, followed by heating for 3 min at the indicated temperatures. After heating, three snap freeze–thaw cycles were applied to lyse the cells, and western blotting was performed as previously described.
# [4] = biological target: T3, His-WD2-7 (WD2 to WD7 repeats of WDR1) (Homo sapiens, UniProt O75083); assay: SPR analysis (Biacore 8 K); type: binding; settings: immobilized His-WD2-7, 25 °C, 5% DMSO
# T3 construct: His; made in house; host or cells: Arctic-Express (E. coli)
# T3 sequence (O75083 48-306 limits assumed): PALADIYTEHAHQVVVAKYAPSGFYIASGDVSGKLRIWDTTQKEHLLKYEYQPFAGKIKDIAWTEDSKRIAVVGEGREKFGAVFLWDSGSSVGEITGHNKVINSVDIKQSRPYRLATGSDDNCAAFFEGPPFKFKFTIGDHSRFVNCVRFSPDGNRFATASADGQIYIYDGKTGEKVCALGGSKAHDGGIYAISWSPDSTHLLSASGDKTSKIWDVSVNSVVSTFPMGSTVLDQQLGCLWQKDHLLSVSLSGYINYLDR
# Experimental: The binding affinities of GA-amide for its target proteins GST-WDR1, GST, and His-WD2-7 were assayed by using the SPR-based Biacore 8 K instrument (GE Healthcare). The CM5 sensor chip was used to immobilize 15,000 RU of the target protein to the sensor surface by the standard amine coupling reaction at 25 °C in PBS running buffer. Gradient concentrations of GA-amide containing 5% DMSO were injected into the channels to evaluate the binding affinity. The dissociation constants (KD values) of the GA-amide–protein complexes were calculated with Biacore 8 K Evaluation Software.
# The pGEX4T-1 plasmid was used to express the GST-WDR1 and GST proteins, while the pET-28c plasmid was used to express the His-WD2-7 protein. Arctic-ExpressTM was used for the production of the GST-WDR1, GST and His-WD2-7 fusion proteins. The cultures were grown at 37 °C, and when the OD600 reached 0.5–0.8, the protein was expressed after 0.5 mM IPTG was added. After 4 h, the cells were collected and washed with cold PBS twice.
# For His-WD2-7 protein purification, cells were first lysed by sonication. WD2-7 was present the precipitate and solubilized as described above. Then, the protein was loaded onto a Balanced Ni-IDA-Sepharose Cl-6B column (Novagen) and washed with Ni-IDA Washing-Buffer (20 mM Tris-HCl, 20 mM imidazole, 0.15 M NaCl, pH 8.0). […]
# [5] = system: GSC2 subcutaneous xenograft; assay: GSC2-derived subcutaneous xenograft model; type: in vivo, nude mice; settings: 2 mg/kg i.p. once daily for 11 days
# Experimental: Fig. 3 The inhibitory effects of GA-amide in glioma stem cell-derived mouse models and transgenic mouse models. a, b GSC2 cells were implanted s.c. into nude mice. Mice were treated with control (DMSO) (n = 7) or GA-amide (2 mg/kg) (n = 8) via i.p. injection once daily for 11 days, after which a photograph (a) was taken to show the tumor volume, and the tumor volume was calculated by a modified ellipsoid formula in (b). c, d GSC2 cells were implanted intracranially into nude mice. Mice were injected i.v. with control (n = 8) or 1 mg/kg GA-amide (n = 8) daily for 13 days, the Mantel‒Cox log–rank test was used for analysis, and the relative survival curves are shown in (c). The body weights are shown in (d). e In vivo efficacy studies of GA-amide using transgenic mouse models. Glioma was induced in transgenic C57BL/6 mice by injection of pTomo-Ras-sip53 lentivirus, and the strategy is shown. f, g MRI analysis was used to group mice into the control (n = 7) and GA-amide-treated groups (n = 8) before treatment. The statistical results are shown in (f), and representative MRI images are shown in (g). […]
structure (smiles),measurement,setting,value
"CC(C)=CCC[C@]1(C)C=Cc2c(O)c3c(c(CC=C(C)C)c2O1)O[C@]12C(=C[C@@H]4CC1C(C)(C)O[C@@]2(C/C=C(/C)C(N)=O)C4=O)C3=O [GA-amide, gambogic amide]",number of invading cells (transwell),[1],significant decrease in the number of invading PDCs and GSCs
same,TrkA phosphorylation,[2],TrkA was phosphorylated at Y751 and Y490 in GSCs
same,WDR1 thermal stabilization (western blot band),[3],the band persisted in the cells treated with GA-amide
same,Kd,[4],46.7 µM
same,tumor growth,[5],significantly inhibited the growth of tumors
